Source: ChEMBL document CHEMBL1150720, “Inhibition of mitochondrial NADH oxidase, succinoxidase, and ATPase by naturally occurring flavonoids” (J Nat Prod, 1987)
Activity calls are given as the source filed them. The calls are words filed in the database; no cut-off is given here.

What was measured:
[1] = Inhibition of rat liver mitochondrial ATPase assessed per mg of protein; conditions: read-out: I50
Rattus norvegicus = organism: Rattus norvegicus; assay: Inhibition of rat liver mitochondrial ATPase assessed as specific activity at 0.42 mM relative to control; set-up: scale not given: the % may be the effect or the level left
Bos taurus [2] = organism: Bos taurus; assay: Inhibition of beef heart mitochondrial NADH oxidase assessed as specific activity at 0.35 mM preincubated for 15 mins relative to control; set-up: scale not given: the % may be the effect or the level left
Bos taurus [3] = organism: Bos taurus; assay: Inhibition of beef heart mitochondrial succinoxidase assessed as specific activity at 0.35 mM preincubated for 15 mins relative to control; set-up: scale not given: the % may be the effect or the level left
[4] = Inhibition of beef heart mitochondrial NADH oxidase assessed per mg of protein; set-up: species or system Bos taurus; conditions: read-out: I50
[5] = Inhibition of beef heart mitochondrial succinoxidase assessed per mg of protein; set-up: species or system Bos taurus; conditions: read-out: I50
Bos taurus [6] = organism: Bos taurus; assay: Inhibition of beef heart mitochondrial NADH oxidase assessed as complete enzyme inhibition at 100 nmol/mg

Structure (SMILES)	IC50 [1] [nmol/mg]	Activity (Rattus norvegicus) [%]	Activity (Bos taurus [2]) [%]	Activity (Bos taurus [3]) [%]	IC50 [4] [nmol/mg]	IC50 [5] [nmol/mg]	Activity (Bos taurus [6])
O=C1C[C@@H](c2ccc(O)cc2)Oc2cc(O)cc(O)c21 [NARINGENIN]	1800	43.6	83.9	84.8	–	–	–
O=C1c2ccc(O)cc2O[C@H](c2ccc(O)c(O)c2)[C@H]1O [FUSTIN]	–	–	–	–	671	–	–
O=c1c(O)c(-c2ccc(O)cc2)oc2cc(O)cc(O)c12	–	94.2	59.3	84.4	–	–	–
O=c1c(O)c(-c2ccc(O)cc2O)oc2cc(O)cc(O)c12 [MORIN]	120	13.3	18	31.5	430	730	–
O=c1c(O)c(-c2ccc(O)c(O)c2)oc2cc(O)cc(O)c12 [QUERCETIN]	205	7.1	6.4	21.8	145	715	–
O=c1cc(-c2ccccc2)oc2cc(O)ccc12 [7-HYDROXYFLAVONE]	–	95.1	54.2	91.3	1400	–	–
O=c1c(O)c(-c2ccc(O)c(O)c2)oc2cc(O)ccc12 [FISETIN]	480	17.2	8.3	9.6	15	45	Active
O=c1cc(-c2ccccc2)oc2ccccc12 [FLAVONE]	–	67.4	14.5	82	240	–	–
O=c1cc(-c2ccc(O)cc2)oc2cc(O)cc(O)c12 [APIGENIN]	–	84.6	12.9	93.8	920	–	–
O=C1CC(c2ccccc2)Oc2ccccc21 (centres undefined) [FLAVANONE]	–	73.4	6.5	84.8	310	–	–
O=c1cc(-c2ccccc2)oc2cc(O)cc(O)c12 [CHRYSIN]	–	77.7	11.2	75.8	250	–	–
COc1ccccc1-c1cc(=O)c2c(OC)cccc2o1	–	77.3	86.9	80.8	–	–	–
C[C@@H]1O[C@@H](OC[C@H]2O[C@@H](Oc3c(-c4ccc(O)c(O)c4)oc4cc(O)cc(O)c4c3=O)[C@H](O)[C@@H](O)[C@@H]2O)[C@H](O)[C@H](O)[C@H]1O [RUTIN]	–	66.5	49.1	66.7	1890	–	–
COc1ccc(-c2oc3cc(O)cc(O)c3c(=O)c2O)cc1	–	96.1	70.6	98.7	–	–	–
COc1ccc(-c2cc(=O)c3c(O)cc(O)cc3o2)cc1	–	98.7	88.6	99.3	–	–	–
O=c1c(-c2ccc(O)cc2)coc2cc(O)cc(O)c12 [GENISTEIN]	–	69.2	6.6	98.3	365	–	–
O=c1c(O)c(-c2ccccc2)oc2cc(O)cc(O)c12 [GALANGIN]	–	99.9	48.6	92.4	1670	–	–
O=c1cc(-c2ccccc2)oc2cccc(O)c12 [5-HYDROXYFLAVONE]	–	98.9	14.6	95.7	425	–	–
O=C1c2c(O)cc(O)cc2O[C@H](c2ccc(O)c(O)c2)[C@H]1O [(+)-TAXIFOLIN]	–	–	–	–	1040	–	–
O=c1c(O)c(-c2cc(O)c(O)c(O)c2)oc2cc(O)cc(O)c12 [MYRICETIN]	370	8.4	12	14.7	35	45	–
